{"source": "paper PMC3409115", "about": "“Diverse Inhibitor Chemotypes Targeting Trypanosoma cruzi CYP51” (PLoS Neglected Tropical Diseases, 2012)", "key": {"T. cruzi CYP51": {"target": "T1, T. cruzi CYP51 (Trypanosoma cruzi, UniProt Q7Z1V1)", "T1 construct": "had the first 21 residues upstream of K22 replaced with the fragment MAKKKKK; His6 (C); made in house", "T1 sequence (Q7Z1V1 15-481, looked up, natural form)": "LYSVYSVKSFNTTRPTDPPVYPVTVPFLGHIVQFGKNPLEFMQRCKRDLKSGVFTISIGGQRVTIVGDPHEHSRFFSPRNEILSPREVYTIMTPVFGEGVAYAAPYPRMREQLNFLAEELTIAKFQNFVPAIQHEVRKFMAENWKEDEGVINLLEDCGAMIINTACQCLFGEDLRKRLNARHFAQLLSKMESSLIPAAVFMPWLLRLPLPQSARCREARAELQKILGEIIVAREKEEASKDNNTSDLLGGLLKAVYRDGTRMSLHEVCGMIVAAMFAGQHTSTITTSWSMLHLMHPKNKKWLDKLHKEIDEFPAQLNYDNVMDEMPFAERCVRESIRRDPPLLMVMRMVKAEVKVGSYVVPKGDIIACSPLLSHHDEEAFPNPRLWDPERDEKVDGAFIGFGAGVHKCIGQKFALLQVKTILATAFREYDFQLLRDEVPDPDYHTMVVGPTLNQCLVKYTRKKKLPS", "assay": "Low throughput UV-vis binding assay", "conditions": "for Binding to CYP51 by UV-vis titration (in words): 0.5 µM CYP51", "procedure": "Hit validation in the low throughput UV-vis binding assay was performed according to a previously published but somewhat modified protocol. UV-vis absorption spectra were recorded on a Cary scanning spectrophotometer (Varian) in the 1-cm path length quartz cuvette at 23°C in 100 mM potassium phosphate buffer, pH 7.5, containing 10% glycerol, with CYP51 concentration of 0.5 µM. Compound solutions used for titration were prepared in DMSO at 100 µM and added in 2-µl aliquots to each 3 ml sample using a P2 pipetman (Gilson). Binding affinity of hits was estimated using the quadratic tight-binding equation [27]: […]\nwhere Aobs is the absorption shift determined at any ligand concentration; Amax is the maximal absorption shift obtained at saturation; KD is dissociation constant for the inhibitor-enzyme complex; S is the ligand concentration; Et is the total enzyme concentration."}, "[1]": {"test_system": "host cell (skeletal myoblasts, bovine embryo skeletal muscle or C2C12)", "assay": "Host cell toxicity in the cross-validation assay", "assay_type": "cell-based", "conditions": "host cells in cross-validation assay, up to 10 µM"}}, "note": "Like-named read-outs stand apart in the source and are kept apart here."}
{"molecule": "Brc1ccccc1OCCCCCCn1ccnc1", "note": "[Compound 1]", "values": [{"measurement": "Binding to CYP51 by UV-vis titration (in words)", "setting": "T. cruzi CYP51", "result": "at least low nanomolar binding affinity"}, {"measurement": "Kd", "setting": "T. cruzi CYP51; UV-vis titration, 0.5 µM CYP51, quadratic tight-binding equation, lower limit of method ~5 nM, read-out: KD", "result": "≤ 5", "unit": "nM"}, {"measurement": "Toxicity score (highest percentage of host cell growth inhibition)", "setting": "[1]", "result": "2 (2-21-30%)"}]}
{"molecule": "O=C(c1ccc(Cl)cc1)C(Oc1ccc(Cl)cc1)n1cncn1", "note": "(stereo not drawn) [Compound 13, 2-(4-chlorophenoxy)-1-(4-chlorophenyl)-2-(1H-1,2,4-triazol-1-yl)ethanone]", "values": [{"measurement": "Kd", "setting": "T. cruzi CYP51", "result": "≤ 5", "unit": "nM"}, {"measurement": "Binding to CYP51 by UV-vis titration (in words)", "setting": "T. cruzi CYP51", "result": "binds and saturates CYP51 at equimolar 0.5 µM concentrations"}, {"measurement": "Toxicity score (highest percentage of host cell growth inhibition)", "setting": "[1]", "result": "3 (3- 31-40%)"}]}
